Laboratory results as given in US20200207734A1, “HETEROCYCLIC COMPOUND AND USE THEREOF” (Takeda Pharmaceutical Company Limited, priority 2017, published 2020).

Columns and labels:
cynomolgus monkeys = assay: Evaluation of wake-promoting effects in cynomolgus monkeys (EEG/EMG/EOG); format: in vivo; details: Macaca fascicularis, sc, 4 h; 1 mg/kg, s.c., cynomolgus monkeys, administered at ZT12; read-out: Wakefulness time (% of vehicle treatment) (Mean, n = 1-2)
Description: The wake-promoting effects were evaluated by measuring the electroencephalogram (EEG), electromyogram (EMG) and electrooculogram (EOG) in cynomolgus monkeys. Under isoflurane anesthesia (1-5%, Pfizer Japan Inc., Tokyo, Japan), male cynomolgus monkeys (3-5 years old, Hamri Co., Ltd., Ibaraki, Japan) were surgically implanted with radio-telemetry transmitters (TL10M3-D70-EEE, Data Sciences International Inc., MN, USA). EEG leads were stereotaxically positioned at the parietal area and secured to the cranium with stainless-steel screws in contact with the dura. […] Bilateral EMG leads were implanted into the back cervical muscles. After the surgery, each monkey was given penicillin (100,000 units/head, i.m., Meiji Seika Pharma Co., Ltd., Tokyo, Japan), buprenorphine (0.02 mg/kg, i.m., Otsuka Pharmaceutical Co., Ltd., Tokyo, Japan) and prednisolone (1 mg/kg, s.c., Kyoritsu Seiyaku Co., Ltd., Tokyo, Japan) daily for one week. After at least a 1-month recovery period in home cages, the monkeys were habituated to the recording chamber (an acrylic cage 60W×55D×75H (cm)) located in a soundproof, electrically shielded room. After we confirmed that monkeys slept sufficiently in the experimental room, cortical EEG, EMG and EOG signals were recorded using Dataquest ART software (Data Sciences International Inc., MN, USA). The signals were semi automatically scored in 20 sec epochs by a sleep scoring system (SleepSign, Kissei Comtec Co., Ltd., Nagano, Japan). This preliminary scoring was visually inspected and corrected if necessary. Test compound (10 mg/kg, Table 4-1) suspended in 0.5% methylcellulose aqueous solution, or vehicle (i.e., 0.5% methylcellulose aqueous solution) was administered orally (p.o.) to monkeys at zeitgeber time 12 (ZT12) in a volume of 5 mL/kg body weight in a cross-over design. EEG, EMG and EOG recordings were performed for 4 h after the compound administration/treatments. The time spent in wakefulness for 4 h after administration (% of vehicle treatment) was calculated by using SleepSign. Test compound (1 mg/kg, Table 4-2) dissolved in a mixed solution comprising 5% DMSO, 5% Cremophor EL, 20% PEG400 and 70% soluplus (1% (w/v)), or vehicle (i.e., a mixed solution comprising 5% DMSO, 5% Cremophor EL, 20% PEG400 and 70% soluplus (1% (w/v))) was administered subcutaneously (s.c.) to monkeys at ZT12 in a volume of 0.5 mL/kg body weight in a pre-post design. EEG, EMG and EOG recordings were performed for 4 h after the compound administration/treatments. The time spent in wakefulness for 4 h after administration (% of vehicle treatment) was calculated by using SleepSign.

[1] = target: T1, human orexin type 2 receptor (Homo sapiens, UniProt O43614); assay: Measurement of orexin type 2 receptor agonist activity (calcium fluorescence, CHO cells expressing hOX2R); format: cell-based; details: test compound 3 μM; CHO cells expressing human OX2 receptor; DMSO = 0%, orexin A (human) = 100%
T1 construct: human orexin type 2 receptor cDNA was inserted into pcDNA3.1(+) plasmid vector (Invitrogen); expressed in transfected cells
T1 sequence (O43614 1-444): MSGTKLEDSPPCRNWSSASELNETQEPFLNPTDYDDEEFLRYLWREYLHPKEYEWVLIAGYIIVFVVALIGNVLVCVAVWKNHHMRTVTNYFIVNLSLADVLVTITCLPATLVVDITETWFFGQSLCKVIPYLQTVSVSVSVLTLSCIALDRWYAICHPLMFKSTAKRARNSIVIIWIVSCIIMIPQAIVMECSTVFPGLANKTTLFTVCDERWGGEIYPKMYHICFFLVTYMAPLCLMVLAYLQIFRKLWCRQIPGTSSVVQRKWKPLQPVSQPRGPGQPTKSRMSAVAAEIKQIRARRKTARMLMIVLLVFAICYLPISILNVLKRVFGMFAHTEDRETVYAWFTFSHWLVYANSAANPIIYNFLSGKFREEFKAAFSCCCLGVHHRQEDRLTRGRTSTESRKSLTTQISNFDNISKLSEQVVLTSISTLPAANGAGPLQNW
How it was run: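 CHO-dhfr cells stably expressing hOX2R, loaded with Fluo-4 AM in HBSS/20 mM HEPES/0.1% BSA with probenecid, then given test compound. Calcium fluorescence was read for about 2 min 40 sec. Activity (%) was scaled between DMSO (0%) and 10 nM final human orexin A (100%).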

SMILES | response vs control in vivo at 1 mg/kg (cynomolgus monkeys) [%] | OX2R agonist activity (3 μM, %) [1] [%]
CCS(=O)(=O)N[C@H]1CCN(C(=O)N2CCC2)[C@H]1Cc1cccc(-c2cc(F)cc(F)c2)c1 [Example 362, N-((2S,3S)-1-(azetidin-1-ylcarbonyl)-2-((3′,5′-difluorobiphenyl-3-yl)methyl)pyrrolidin-3-yl)ethanesulfonamide] | 271 | 103
CC(C)(O)C(=O)N1CC[C@H](NS(=O)(=O)CF)[C@@H]1Cc1cccc(-c2cc(F)cc(F)c2)c1F [Example 423, 1-fluoro-N-((2S,3S)-1-(2-hydroxy-2-methylpropanoyl)-2-((2,3′,5′-trifluorobiphenyl-3-yl)methyl)pyrrolidin-3-yl)methanesulfonamide] |  | 109
CC(C)(O)C(=O)N1CC[C@H](NS(=O)(=O)C(F)F)[C@@H]1Cc1cccc(-c2cc(F)cc(F)c2)c1F [Example 424, 1,1-difluoro-N-((2S,3S)-1-(2-hydroxy-2-methylpropanoyl)-2-((2,3′,5′-trifluorobiphenyl-3-yl)methyl)pyrrolidin-3-yl)methanesulfonamide] |  | 101
CC(C)(O)C(=O)N1CC[C@H](NS(C)(=O)=O)[C@@H]1Cc1cccc(-c2cc(F)cc(Cl)c2)c1F [Example 428, N-((2S,3S)-2-((3′-chloro-2,5′-difluorobiphenyl-3-yl)methyl)-1-(2-hydroxy-2-methylpropanoyl)pyrrolidin-3-yl)methanesulfonamide] |  | 102
CCS(=O)(=O)N[C@H]1CCN(C(=O)C(C)(C)O)[C@H]1Cc1cccc(-c2cccc(Cl)c2)c1F [Example 431, N-((2S,3S)-2-((3′-chloro-2-fluorobiphenyl-3-yl)methyl)-1-(2-hydroxy-2-methylpropanoyl)pyrrolidin-3-yl)ethanesulfonamide] |  | 101
CCS(=O)(=O)N[C@H]1CCN(C(=O)C(C)(C)O)[C@H]1Cc1cccc(-c2cc(F)cc(F)c2)c1F [Example 435, N-((2S,3S)-1-(2-hydroxy-2-methylpropanoyl)-2-((2,3′,5′-trifluorobiphenyl-3-yl)methyl)pyrrolidin-3-yl)ethanesulfonamide] |  | 107
CCS(=O)(=O)N[C@H]1CCN(C(=O)C(C)(C)O)[C@H]1Cc1cccc(-c2cc(F)cc(Cl)c2)c1F [Example 437, N-((2S,3S)-2-((3′-chloro-2,5′-difluorobiphenyl-3-yl)methyl)-1-(2-hydroxy-2-methylpropanoyl)pyrrolidin-3-yl)ethanesulfonamide] |  | 99
CC(C)(O)C(=O)N1CC[C@H](NS(=O)(=O)C2CC2)[C@@H]1Cc1cccc(-c2cc(F)cc(F)c2)c1F [Example 439, N-((2S,3S)-1-(2-hydroxy-2-methylpropanoyl)-2-((2,3′,5′-trifluorobiphenyl-3-yl)methyl)pyrrolidin-3-yl)cyclopropanesulfonamide] |  | 98
CS(=O)(=O)N[C@H]1CCN(C(=O)C2CCO2)[C@H]1Cc1cccc(-c2cc(F)cc(F)c2)c1F (stereo partly drawn) [Example 441, N-{(2S,3S)-1-(oxetane-2-carbonyl)-2-[(2,3′,5′-trifluoro[1,1′-biphenyl]-3-yl)methyl]pyrrolidin-3-yl}methanesulfonamide] |  | 99
CC(C)(CO)C(=O)N1CC[C@H](NS(C)(=O)=O)[C@@H]1Cc1cccc(-c2cc(F)cc(F)c2)c1F [Example 457, N-{(2S,3S)-1-(3-hydroxy-2,2-dimethylpropanoyl)-2-[(2,3′,5′-trifluoro[1,1′-biphenyl]-3-yl)methyl]pyrrolidin-3-yl}methanesulfonamide] |  | 103
O=C(N1CCC1)N1CC[C@H](NS(=O)(=O)CF)[C@@H]1Cc1cccc(-c2cccc(F)c2)c1 [Example 459, N-{(2S,3S)-1-(azetidine-1-carbonyl)-2-[(3′-fluoro[1,1′-biphenyl]-3-yl)methyl]pyrrolidin-3-yl}-1-fluoromethanesulfonamide] |  | 93
O=C(N1CCC1)N1CC[C@H](NS(=O)(=O)CF)[C@@H]1Cc1cccc(-c2ccccc2)c1 [Example 460, N-{(2S,3S)-1-(azetidine-1-carbonyl)-2-[([1,1′-biphenyl]-3-yl)methyl]pyrrolidin-3-yl}-1-fluoromethanesulfonamide] |  | 92
O=C(N1CCC1)N1CC[C@H](NS(=O)(=O)C2CC2)[C@@H]1Cc1cccc(-c2cccc(F)c2)c1 [Example 462, N-{(2S,3S)-1-(azetidine-1-carbonyl)-2-[(3′-fluoro[1,1′-biphenyl]-3-yl)methyl]pyrrolidin-3-yl}cyclopropanesulfonamide] |  | 112
O=C(N1CCC1)N1CC[C@H](NS(=O)(=O)C2CC2)[C@@H]1Cc1cccc(-c2ccccc2)c1 [Example 463, N-{(2S,3S)-1-(azetidine-1-carbonyl)-2-[([1,1′-biphenyl]-3-yl)methyl]pyrrolidin-3-yl}cyclopropanesulfonamide] |  | 105
O=C(N1CCC1)N1CC[C@H](NS(=O)(=O)CF)[C@@H]1Cc1cccc(-c2ccccc2)c1F [Example 466, N-{(2S,3S)-1-(azetidine-1-carbonyl)-2-[(2-fluoro[1,1′-biphenyl]-3-yl)methyl]pyrrolidin-3-yl}-1-fluoromethanesulfonamide] |  | 108
O=C(N1CCC1)N1CC[C@H](NS(=O)(=O)CF)[C@@H]1Cc1cccc(-c2cccc(F)c2)c1F [Example 467, N-{(2S,3S)-1-(azetidine-1-carbonyl)-2-[(2,3′-difluoro[1,1′-biphenyl]-3-yl)methyl]pyrrolidin-3-yl}-1-fluoro-methanesulfonamide] |  | 101
CCS(=O)(=O)N[C@H]1CCN(C(=O)C2CCC2)[C@H]1Cc1cccc(-c2ccccc2)c1 [Example 471, N-[(2S,3S)-2-[([1,1′-biphenyl]-3-yl)methyl]-(cyclobutanecarbonyl)pyrrolidin-3-yl]ethanesulfonamide] |  | 116
CC(C)(O)C(=O)N1CC[C@H](NS(=O)(=O)C2(F)CC2)[C@@H]1Cc1cccc(-c2ccccc2)c1F [Example 479, 1-fluoro-N-[(2S,3S)-2-[(2-fluoro[1,1′-biphenyl]-3-yl)methyl]-1-(2-hydroxy-2-methylpropanoyl)pyrrolidin-3-yl] cyclopropane-1-sulfonamide] |  | 103
CC(C)(O)C(=O)N1CC[C@H](NS(=O)(=O)C2(F)CC2)[C@@H]1Cc1cccc(-c2cc(F)cc(F)c2)c1F [Example 480, 1-fluoro-N-{(2S,3S)-1-(2-hydroxy-2-methylpropanoyl)-2-[(2,3′,5′-trifluoro[1,1′-biphenyl]-3-yl)methyl]pyrrolidin-3-yl}cyclopropane-1-sulfonamide] |  | 113
CCS(=O)(=O)N[C@H]1CCN(C(=O)C(C)(C)O)[C@H]1Cc1cccc(-c2cccc(F)c2)c1F [Example 488, N-((2S,3S)-2-((2,3′-difluorobiphenyl-3-yl)methyl)-1-(2-hydroxy-2-methylpro-panoyl)pyrrolidin-3-yl)ethanesulfona-mide] |  | 101
